From patent US10092599B2, “Methods for enhancing hematopoietic stem/progenitor cell engraftment” (CHILDREN'S MEDICAL CENTER CORPORATION, priority 2009, dated 2018)

Test system: hematopoietic stem/progenitor cell engraftment
Assay: adult zebrafish whole kidney marrow competitive transplantation assay
Format: in vivo
Details: for engraftment signal in pilot screen of 10 bioactive compounds: by four weeks post-transplant, 10 recipients per treatment; for average G/R / percentage of positive recipients: green marrow incubated in vitro 4 hrs, mixed with red marrow 1:4, 4 wpt, compared with DMSO control; for engraftment: by 4 weeks post transplant
Excerpt: A transparent adult zebrafish, casper, was used as a transplantation recipient. Casper is a double homozygous pigment mutant for the nacre allele (devoid of melanocytes) and the roy allele (devoid of iridophores and reduced melanoyctyes), which allows direct visualization of GFP labeled hematopoietic stem cell homing and engraftment without killing the recipients. Two marrows are used: Tg(β-actin:GFP) and Red GloFish® respectively to compete with each other at varying ratios e.g., 1:4, which can generate robust competition between the two donors. In one embodiment, the red marrow is the competitor, as well as an internal control for the transplant. At different timepoints post-transplant, the recipients are anesthetized and two pictures for each recipient are taken by a fluorescence stereomicroscope with GFP/DsRed filters individually. Images are analyzed by software, such as ImageJ, which can quantify the GFP/DsRed fluorescence intensity. The relative engraftment efficiency of the manipulated green marrow is measured by the ratio of the GFP intensity over the DsRed intensity within the same kidney region after background subtraction (labeled as G/R).
A double-color labeled competitive transplantation assay was developed, as shown by the flow chart in FIG. 1A. GFP+ and DsRed2+ marrow cells are isolated from Tg(β-actin:GFP) and commercially available Red GloFish®. The two donor populations are mixed at a certain ratio and injected into sublethally irradiated casper recipients retro-orbitally. The DsRed2+ marrow is used as the competitor. Four weeks later, the engraftment is visualized by fluorescence dissection scope. Pictures of GFP and DsRed engraftment are taken for each recipient and analyzed by ImageJ. The kidney region is manually selected and the average fluorescence intensities of both green and red are measured within the same region. The average background intensity is measured in a region outside the fish, and subtracted from the kidney intensity. The calculation of the relative engraftment is shown by the equation in FIG. 1B.
Adult zebrafish donors are anaesthetized with 0.2% tricaine before blood and kidney collection. Peripheral blood is obtained from adult casper by cardiac puncture with micropipette tips coated with heparin and collected into 0.9×PBS containing 5% FCS. About 3-5 million red blood cells are harvested from one donor. To dissect whole kidney marrow (WKM), a ventral midline incision is made on the donor fish. Whole kidney is dissected out and placed into ice-cold 0.9×PBS containing 5% FCS. Single-cell suspensions are generated by aspiration followed by filtering through a […] nylon mesh filter into a 50 ml conical tube. The flow-though part is diluted with a final volume of 25 ml and centrifuged at 1,500 rpm for 8 minutes. The supernatant is discarded and the pellet cells are resuspended in 1 ml 0.9×PBS containing 5% FCS. The number of viable cells are counted with a hemocytometer. […] Finally, the peripheral blood and kidney marrow cells are centrifuged at 1,500 rpm for 8 minutes, resuspended in 0.9×PBS containing 5% FCS and mixed at a certain ratio and concentration. Casper recipients are anesthetized in tricaine. 4 μl of the cell suspension mixture described above is injected into the circulation retro-orbitally through a Hamilton syringe (26s gauge, 10 μl volume). […] Transplanted recipients can be anesthetized in tricaine and visualized over time on a Zeiss Discovery V8 stereomicroscope with a 1.2× PlanApo lens and GFP/DsRed filters. Images are captured using AxioVision software and for each recipient, two images are taken with GFP or DsRed filter respectively. The images are all saved in .tif format and analyzed using ImageJ software.

SMILES	score in the competitive transplant model (at 3 months)	score in the competitive transplant model (at 4 weeks)	engraftment signal in pilot screen of 10 bioactive compounds	average G/R	percentage of positive recipients	engraftment (green marrow incubated in vitro with 10 μM at room temperature for 2-4 hours)	engraftment (green marrow incubated in vitro with 0.5 μM at room temperature for 2-4 hours)
CCCCC(C)(C)[C@H](O)/C=C/[C@H]1[C@H](O)CC(=O)[C@@H]1C/C=C\CCCC(=O)O [dmPGE2, 16-,16-dimethyl Prostaglandin E2]	positive	positive	enhanced signal above the rest of the chemicals tested	significantly increased	significantly increased	increase engraftment	–
O=C1Nc2cc(Br)ccc2C1=C1Nc2ccccc2C1=NO [BIO, 6-bromorindirubin-3′-oxime]	positive	positive	enhanced signal above the rest of the chemicals tested	significantly increased	significantly increased	–	increase engraftment
